Laboratory results from ChEMBL document CHEMBL4765462, “Synthetic Lethality through the Lens of Medicinal Chemistry” (J Med Chem, 2020).

How the values were obtained:
[1] = molecular target: T1, DNA repair protein RAD52 homolog (Homo sapiens) (UniProt P43351); assay: Inhibition of FAM-conjugated ssDNA binding to His-tagged wild type RAD52 (unknown origin) expressed in Rosetta2(DE3)/pLysS cells measured after 30 mins by high-throughput fluorescence polarization assay relative to control; design: concentration or dose not given beside the values
T1 sequence (whole entry): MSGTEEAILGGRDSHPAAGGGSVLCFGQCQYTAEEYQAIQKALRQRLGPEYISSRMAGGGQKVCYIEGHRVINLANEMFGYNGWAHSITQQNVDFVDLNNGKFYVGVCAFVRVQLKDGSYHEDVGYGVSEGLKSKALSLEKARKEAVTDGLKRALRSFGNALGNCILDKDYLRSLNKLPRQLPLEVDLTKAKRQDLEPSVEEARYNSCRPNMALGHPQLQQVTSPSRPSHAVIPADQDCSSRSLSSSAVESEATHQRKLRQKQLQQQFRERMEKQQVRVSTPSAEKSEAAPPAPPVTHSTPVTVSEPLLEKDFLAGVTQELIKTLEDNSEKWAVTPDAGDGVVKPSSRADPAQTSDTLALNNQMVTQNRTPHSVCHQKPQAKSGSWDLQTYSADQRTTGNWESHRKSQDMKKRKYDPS

[2] = molecular target: T2, DNA repair protein RAD52 homolog (Homo sapiens, UniProt P43351); assay: Inhibition of FAM-conjugated ssDNA binding to His-tagged wild type RAD52 (unknown origin) expressed in Rosetta2(DE3)/pLysS cells measured after 30 mins by fluorescence polarization assay
T2 sequence (P43351 whole entry): T1 sequence (whole entry)

Wee1-like protein kinase = Wee1-like protein kinase (Homo sapiens, UniProt P30291); assay: Displacement of kinase tracer178 from recombinant WEE1 (unknown origin) incubated for 1 hr by lanthascreen TR-FRET assay
U-87 MG = assay: Antimigratory activity against human U87 cells up to 10 microM incubated for 6 hrs by CellTiter-Glo luminescent cell viability assay relative to control; type: functional, U-87MG ATCC; details: dose microM <=10
[3] = Antimigratory activity against human U-1242 cells at 3 uM incubated for 1 hr by scratch assay; type: functional, U-1242MG
[4] = molecular target: Serine-protein kinase ATM (Homo sapiens, UniProt Q13315); assay: Inhibition of human HeLa nuclear extract derived ATM using glutathioneS-transferase-p53N66 as substrate preincubated for 10 mins followed by ATP addition and measured after 1 hr by ELISA
MDA-MB-468 = assay: Potentiation of veliparib-induced cytotoxicity against human MDA-MB-468 cells incubated for 7 days by celltiter-Glo assay relative to control; type: functional; details: time 7 day
Hs-578T = assay: Potentiation of veliparib-induced cytotoxicity against human Hs578T cells incubated for 7 days by celltiter-Glo assay relative to control; type: functional; details: time 7 day
HCC38 = assay: Potentiation of veliparib-induced cytotoxicity against human HCC38 cells incubated for 7 days by celltiter-Glo assay relative to control; type: functional; details: time 7 day
BT-549 = assay: Potentiation of veliparib-induced cytotoxicity against human BT549 cells incubated for 7 days by celltiter-Glo assay relative to control; type: functional; details: time 7 day
BT-20 = assay: Potentiation of veliparib-induced cytotoxicity against human BT20 cells incubated for 7 days by celltiter-Glo assay relative to control; type: functional; details: time 7 day
MDA-MB-231 = assay: Potentiation of veliparib-induced cytotoxicity against human MDA-MB-231 cells incubated for 7 days by celltiter-Glo assay relative to control; type: functional; details: time 7 day
MDA-MB-436 = assay: Potentiation of veliparib-induced cytotoxicity against human MDA-MB-436 cells incubated for 7 days by celltiter-Glo assay relative to control; type: functional; details: time 7 day
SUM149PT = assay: Potentiation of veliparib-induced cytotoxicity against human SUM149PT cells incubated for 7 days by celltiter-Glo assay relative to control; type: functional; details: time 7 day
HCC1937 = assay: Potentiation of veliparib-induced cytotoxicity against human HCC1937 cells incubated for 7 days by celltiter-Glo assay relative to control; type: functional; details: time 7 day
[5] = Inhibition of human placental DNA-PK/Ku using EPPLSQEAFADLWKK as substrate in presence of [32P]ATP incubated for 12 mins by scintillation counting method
[6] = Inhibition of DNA-PK (unknown origin); design: species or system Homo sapiens
[7] = molecular target: Cyclin-dependent kinase 12 (Homo sapiens, UniProt Q9NYV4); assay: Inhibition of CDK12 (unknown origin)
[8] = molecular target: Cyclin-dependent kinase 13 (Homo sapiens, UniProt Q14004); assay: Inhibition of CDK13 (unknown origin)
[9] = molecular target: Cyclin-dependent kinase 1 (Homo sapiens, UniProt P06493); assay: Inhibition of CDK1 (unknown origin)
Sequence of Cyclin-dependent kinase 1 (P06493 whole entry): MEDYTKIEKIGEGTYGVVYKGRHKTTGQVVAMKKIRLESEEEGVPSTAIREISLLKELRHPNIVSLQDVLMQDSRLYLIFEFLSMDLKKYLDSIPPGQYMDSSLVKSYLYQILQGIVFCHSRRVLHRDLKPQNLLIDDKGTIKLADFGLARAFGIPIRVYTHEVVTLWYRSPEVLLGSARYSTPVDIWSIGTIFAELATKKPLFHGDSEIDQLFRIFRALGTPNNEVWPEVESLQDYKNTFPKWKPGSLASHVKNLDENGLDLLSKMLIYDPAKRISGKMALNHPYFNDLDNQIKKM

BXPC-3 = assay: Growth inhibition of BRCA2-proficient human BxPC3 cells at 10 uM assessed as cell survival incubated for 6 days with replacement of medium for every 3 days by CCK8 assay relative to control; type: functional; details: BXPC-3, 144 h, time 6 day, read-out: Survival
CAPAN-1 = assay: Growth inhibition of BRCA2-deficient human Capan-1 cells at 10 uM incubated for 6 days with replacement of medium for every 3 days by CCK8 assay relative to control; type: functional; details: CAPAN-1, 144 h, time 6 day, read-out: GI
[10] = molecular target: Serine/threonine-protein kinase ATR (Homo sapiens, UniProt Q13535); assay: Inhibition of ATR (unknown origin)
Sequence of Serine/threonine-protein kinase ATR (Q13535 whole entry): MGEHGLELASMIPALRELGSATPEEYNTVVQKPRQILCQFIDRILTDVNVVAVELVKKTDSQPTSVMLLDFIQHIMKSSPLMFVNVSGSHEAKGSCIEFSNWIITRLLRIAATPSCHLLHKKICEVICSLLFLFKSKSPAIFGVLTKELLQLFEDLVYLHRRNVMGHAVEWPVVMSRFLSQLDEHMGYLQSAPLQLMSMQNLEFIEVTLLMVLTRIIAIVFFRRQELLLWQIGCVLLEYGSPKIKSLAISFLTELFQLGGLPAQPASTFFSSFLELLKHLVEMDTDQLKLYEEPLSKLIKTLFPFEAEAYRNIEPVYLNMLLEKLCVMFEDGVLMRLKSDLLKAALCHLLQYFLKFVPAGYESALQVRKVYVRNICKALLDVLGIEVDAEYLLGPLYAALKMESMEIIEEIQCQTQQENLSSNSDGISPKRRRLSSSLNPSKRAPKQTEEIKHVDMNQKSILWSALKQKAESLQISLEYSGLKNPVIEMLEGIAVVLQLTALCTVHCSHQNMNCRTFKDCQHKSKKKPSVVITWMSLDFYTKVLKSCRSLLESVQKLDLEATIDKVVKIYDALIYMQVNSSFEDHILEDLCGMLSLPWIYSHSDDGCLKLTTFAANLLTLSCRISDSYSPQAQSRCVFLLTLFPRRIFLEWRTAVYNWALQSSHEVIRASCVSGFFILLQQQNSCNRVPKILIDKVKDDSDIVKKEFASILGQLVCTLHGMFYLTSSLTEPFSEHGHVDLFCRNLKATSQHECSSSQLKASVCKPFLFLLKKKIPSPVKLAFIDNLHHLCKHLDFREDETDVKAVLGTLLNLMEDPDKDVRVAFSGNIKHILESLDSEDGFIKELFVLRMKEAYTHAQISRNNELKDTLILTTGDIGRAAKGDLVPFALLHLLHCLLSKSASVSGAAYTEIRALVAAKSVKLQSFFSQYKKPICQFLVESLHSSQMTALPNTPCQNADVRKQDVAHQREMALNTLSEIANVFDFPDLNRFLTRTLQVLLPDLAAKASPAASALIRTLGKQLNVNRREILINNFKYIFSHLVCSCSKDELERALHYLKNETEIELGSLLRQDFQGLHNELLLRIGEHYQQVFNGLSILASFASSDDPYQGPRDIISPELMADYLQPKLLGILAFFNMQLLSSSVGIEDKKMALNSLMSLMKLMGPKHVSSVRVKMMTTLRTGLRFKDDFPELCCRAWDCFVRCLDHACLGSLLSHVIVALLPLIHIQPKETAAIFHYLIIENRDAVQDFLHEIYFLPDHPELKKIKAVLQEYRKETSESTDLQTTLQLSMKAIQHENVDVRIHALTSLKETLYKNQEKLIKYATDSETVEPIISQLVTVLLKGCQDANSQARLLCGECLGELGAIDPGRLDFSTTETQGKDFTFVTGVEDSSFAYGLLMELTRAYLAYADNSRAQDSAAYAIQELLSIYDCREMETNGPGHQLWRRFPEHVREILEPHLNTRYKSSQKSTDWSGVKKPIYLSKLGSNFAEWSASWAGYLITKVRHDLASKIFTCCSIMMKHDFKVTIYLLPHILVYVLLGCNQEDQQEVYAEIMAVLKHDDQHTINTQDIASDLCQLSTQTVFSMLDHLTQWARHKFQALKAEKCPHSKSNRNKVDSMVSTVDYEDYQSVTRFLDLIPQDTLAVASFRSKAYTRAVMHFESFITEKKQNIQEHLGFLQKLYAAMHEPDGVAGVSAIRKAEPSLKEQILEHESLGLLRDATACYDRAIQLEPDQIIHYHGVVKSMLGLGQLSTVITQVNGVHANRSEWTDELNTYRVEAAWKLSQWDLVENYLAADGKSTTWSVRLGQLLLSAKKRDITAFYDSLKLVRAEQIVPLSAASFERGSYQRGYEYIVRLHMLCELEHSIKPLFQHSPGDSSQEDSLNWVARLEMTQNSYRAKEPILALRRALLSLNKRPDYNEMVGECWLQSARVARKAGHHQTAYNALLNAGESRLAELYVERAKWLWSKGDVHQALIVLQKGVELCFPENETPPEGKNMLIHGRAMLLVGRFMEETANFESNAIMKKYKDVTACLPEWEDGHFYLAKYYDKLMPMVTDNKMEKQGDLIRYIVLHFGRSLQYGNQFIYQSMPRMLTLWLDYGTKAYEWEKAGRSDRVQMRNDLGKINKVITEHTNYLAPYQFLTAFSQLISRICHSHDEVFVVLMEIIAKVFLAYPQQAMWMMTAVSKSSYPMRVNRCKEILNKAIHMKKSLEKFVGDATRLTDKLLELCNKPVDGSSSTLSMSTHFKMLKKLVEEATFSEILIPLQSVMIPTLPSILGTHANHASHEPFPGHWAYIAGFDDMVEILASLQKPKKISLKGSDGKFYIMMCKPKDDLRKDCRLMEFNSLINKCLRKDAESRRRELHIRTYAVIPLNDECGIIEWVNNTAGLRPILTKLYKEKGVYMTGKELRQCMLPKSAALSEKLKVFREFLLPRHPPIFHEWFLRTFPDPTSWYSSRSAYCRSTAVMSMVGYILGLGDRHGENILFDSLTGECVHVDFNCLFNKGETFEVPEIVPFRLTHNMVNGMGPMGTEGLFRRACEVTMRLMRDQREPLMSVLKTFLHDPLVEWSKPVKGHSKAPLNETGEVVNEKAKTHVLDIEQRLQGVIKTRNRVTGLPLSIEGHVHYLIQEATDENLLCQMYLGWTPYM

[11] = molecular target: Serine/threonine-protein kinase mTOR (Homo sapiens, UniProt P42345); assay: Inhibition of mTOR (unknown origin)
[12] = molecular target: Macrophage colony-stimulating factor 1 receptor (Homo sapiens) (UniProt P07333); assay: Inhibition of human CSF1R expressed in baculovirus expression system at 1 uM relative to control
[13] = molecular target: NUAK family SNF1-like kinase 1 (Homo sapiens) (UniProt O60285); assay: Inhibition of human NUAK1 expressed in baculovirus expression system at 1 uM relative to control
Sequence of NUAK family SNF1-like kinase 1 (Homo sapiens) (O60285 whole entry): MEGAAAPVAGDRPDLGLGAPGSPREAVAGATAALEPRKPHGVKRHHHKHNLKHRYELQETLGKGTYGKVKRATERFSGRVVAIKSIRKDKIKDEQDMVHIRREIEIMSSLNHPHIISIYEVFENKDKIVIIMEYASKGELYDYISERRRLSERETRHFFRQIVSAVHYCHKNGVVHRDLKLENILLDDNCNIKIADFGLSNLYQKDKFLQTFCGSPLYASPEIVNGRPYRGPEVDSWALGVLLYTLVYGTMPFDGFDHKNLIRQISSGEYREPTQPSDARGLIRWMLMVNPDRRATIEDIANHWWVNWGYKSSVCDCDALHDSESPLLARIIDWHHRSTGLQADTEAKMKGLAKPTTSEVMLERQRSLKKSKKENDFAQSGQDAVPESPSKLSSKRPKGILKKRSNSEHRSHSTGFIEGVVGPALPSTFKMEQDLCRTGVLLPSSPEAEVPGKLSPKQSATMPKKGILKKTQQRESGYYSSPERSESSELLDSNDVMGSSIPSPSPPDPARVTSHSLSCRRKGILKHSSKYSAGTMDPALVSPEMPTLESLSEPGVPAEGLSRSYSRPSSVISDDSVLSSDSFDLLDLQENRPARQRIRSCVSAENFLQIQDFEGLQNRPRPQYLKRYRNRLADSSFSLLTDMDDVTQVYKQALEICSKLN

[14] = molecular target: Serine/threonine-protein kinase Sgk1 (Homo sapiens) (UniProt O00141); assay: Inhibition of human SGK expressed in baculovirus expression system at 1 uM relative to control
[15] = molecular target: Voltage-gated inwardly rectifying potassium channel KCNH2 (Homo sapiens, UniProt Q12809); assay: Inhibition of human ERG
Sequence of Voltage-gated inwardly rectifying potassium channel KCNH2 (Q12809 whole entry): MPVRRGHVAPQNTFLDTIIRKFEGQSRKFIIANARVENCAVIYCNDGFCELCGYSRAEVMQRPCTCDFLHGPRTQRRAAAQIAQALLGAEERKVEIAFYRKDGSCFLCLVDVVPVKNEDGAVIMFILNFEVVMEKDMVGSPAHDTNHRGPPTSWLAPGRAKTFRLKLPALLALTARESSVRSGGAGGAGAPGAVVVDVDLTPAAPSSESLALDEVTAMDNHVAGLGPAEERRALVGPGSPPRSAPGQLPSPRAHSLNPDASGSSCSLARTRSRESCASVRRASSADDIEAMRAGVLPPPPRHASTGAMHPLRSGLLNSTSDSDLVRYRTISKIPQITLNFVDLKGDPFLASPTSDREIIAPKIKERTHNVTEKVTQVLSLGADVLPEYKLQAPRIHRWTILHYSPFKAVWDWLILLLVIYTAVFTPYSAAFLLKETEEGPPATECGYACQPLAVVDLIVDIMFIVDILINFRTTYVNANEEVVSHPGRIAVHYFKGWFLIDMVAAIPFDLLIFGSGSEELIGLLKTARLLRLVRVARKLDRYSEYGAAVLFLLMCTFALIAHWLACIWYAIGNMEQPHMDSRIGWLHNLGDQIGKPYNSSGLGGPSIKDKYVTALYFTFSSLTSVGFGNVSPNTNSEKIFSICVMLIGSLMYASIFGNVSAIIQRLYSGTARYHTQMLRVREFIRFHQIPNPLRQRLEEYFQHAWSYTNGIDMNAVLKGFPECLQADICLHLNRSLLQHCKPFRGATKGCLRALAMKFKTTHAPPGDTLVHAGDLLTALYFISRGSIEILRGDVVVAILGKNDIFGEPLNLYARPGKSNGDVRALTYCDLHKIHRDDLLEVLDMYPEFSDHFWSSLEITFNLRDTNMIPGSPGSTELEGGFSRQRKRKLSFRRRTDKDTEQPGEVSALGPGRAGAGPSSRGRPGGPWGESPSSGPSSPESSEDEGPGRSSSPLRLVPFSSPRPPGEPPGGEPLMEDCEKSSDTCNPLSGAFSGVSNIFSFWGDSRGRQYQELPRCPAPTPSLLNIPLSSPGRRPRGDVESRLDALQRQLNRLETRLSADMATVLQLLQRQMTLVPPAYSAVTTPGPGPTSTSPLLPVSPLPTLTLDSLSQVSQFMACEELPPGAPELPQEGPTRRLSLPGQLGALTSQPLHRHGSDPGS

[16] = molecular target: T2, DNA repair protein RAD52 homolog; assay: Inhibition of 6His-tagged human RD52 assessed as reduction in RD52 binding to Cy3-dT30-Cy5 ssDNA incubated for 30 mins by FRET assay

Which results are given for Cn1cccc1C=CC(=O)O?
inhibition [1]: > 60%; IC50 [2]: < 5 µM

For C=CCn1c(=O)c2cnc(Nc3ccc(N4CCN(C(=O)OC)CC4)cc3)nc2n1-c1cccc(C(C)(C)O)n1, which IC50 (Wee1-like protein kinase) is on record?
Its IC50 is 0.0028 µM.

Which results are given for C[C@@H]1CN(CC(=O)Nc2ccc3c(c2)Cc2cccc(-c4cc(=O)cc(N5CCOCC5)o4)c2S3)C[C@H](C)O1?
Activity (U-87 MG): >70%; Activity [3]: >50%

What does the source list for Oc1ccc(N=Cc2ccc[nH]2)cc1N=Cc1ccc[nH]1?
inhibition [1]: > 60%; IC50 [2]: < 5 µM

Which inhibition [1] does the source give for Cc1cc2c(C(C)C)c(O)c(O)c(C=O)c2c(O)c1-c1c(C)cc2c(C(C)C)c(O)c(O)c(C=O)c2c1O [GOSSYPOL] here?
The inhibition was greater than 60%.

What about the IC50 [2] of the same compound?
The IC50 was less than 5 µM.

For O=c1cc(-c2cccc3c2Sc2ccccc2S3)oc(N2CCCCC2)c1, which IC50 [4] is on record?
The IC50 was 2.96 µM.

What does the source list for O=C1C=CC(=NOS(=O)(=O)c2cc(Cl)ccc2Cl)C=C1?
inhibition [1]: > 60%; IC50 [2]: < 5 µM

For CCc1cnn2c(NCc3ccc[n+]([O-])c3)cc(N3CCCC[C@H]3CCO)nc12 [DINACICLIB], which “fold change (FC)” value (MDA-MB-468) is on record?
The value was 2.5.

And the “fold change (FC)” value (Hs-578T)?
The value was 2.5.

What about the “fold change (FC)” value (HCC38) of the same compound?
The value was 2.5.

What about the “fold change (FC)” value (BT-549) of the same compound?
Its value is 2.5.

And the “fold change (FC)” value (BT-20)?
The value was 2.5.

What about the “fold change (FC)” value (MDA-MB-231) of the same compound?
The value was 2.5.

What about the “fold change (FC)” value (MDA-MB-436) of the same compound?
The value was 2.5.

What about the “fold change (FC)” value (SUM149PT) of the same compound?
The value was 2.5.

What about the “fold change (FC)” value (HCC1937) of the same compound?
Its value is 2.5.

Which IC50 [5] does the source give for CCc1[nH]c(/C=C2\C(=O)Nc3ccc(S(=O)(=O)Nc4ccccc4)cc32)c(CC)c1CCC(=O)O here?
Its IC50 is 0.13 µM.

Which results are given for CC(C)Oc1c(-c2ccco2)c(=O)c1=O?
inhibition [1]: > 60%; IC50 [2]: < 5 µM

What does the source list for NC(Cc1cc(O)c(O)cc1O)C(=O)O (stereo not given)?
inhibition [1]: > 60%; IC50 [2]: 1.1 µM

Which inhibition [1] does the source give for O=C1NC(=S)NC(=O)C1=C/C=C/c1ccco1 here?
Its inhibition is greater than 60%.

What about the IC50 [2] of the same compound?
The IC50 was less than 5 µM.

For O=C(O)c1ccc(/C=N/c2nc[nH]n2)cc1, which inhibition [1] is on record?
Its inhibition is greater than 60%.

And the IC50 [2]?
Its IC50 is less than 5 µM.

For Cc1cc2ncnn2cc1Nc1ncc2c(n1)n(C1CCOCC1)c(=O)n2C [AZD-7648], which IC50 [6] is on record?
Its IC50 is 0.0006 µM.

For CN(C)C/C=C/C(=O)Nc1ccc(C(=O)Nc2cccc(Nc3ncc(Cl)c(-c4c[nH]c5ccccc45)n3)c2)cc1, which IC50 [7] is on record?
The IC50 was 0.864 µM.

And the IC50 [8]?
The IC50 was 0.225 µM.

For CCN(CC)CCOc1ccc(Nc2ncc3cc(-c4c(Cl)cccc4Cl)c(=O)n(C)c3n2)cc1 [PD-0166285], which IC50 [9] is on record?
The IC50 was less than 0.1 µM.

Which viability at 10 µM (BXPC-3) does the source give for Cc1ccc2[nH]c(CCc3cccc(NC(=O)C4CCCN(S(=O)(=O)N5CCCC5)C4)c3)nc2c1 (stereo not given) here?
The viability at 10 µM was greater than 90%.

And the inhibition of growth at 10 µM (CAPAN-1)?
The inhibition of growth at 10 µM was 50%.

Which inhibition [1] does the source give for Cn1cccc1C=C1C(=O)NC(=S)NC1=O here?
Its inhibition is greater than 60%.

What about the IC50 [2] of the same compound?
The IC50 was less than 5 µM.

For CC(C)n1c(=O)n(C)c2cnc3cc(F)c(-c4ccc(OCCCN5CCCCC5)nc4)cc3c21 [AZD-1390], which IC50 [10] is on record?
The IC50 was no less than 1 µM.

What about the IC50 [11] of the same compound?
The IC50 was no less than 1 µM.

And the IC50 [6]?
The IC50 was no less than 1 µM.

What about the inhibition [12] of the same compound?
The inhibition was greater than 50%.

And the inhibition [13]?
The inhibition was greater than 50%.

What about the inhibition [14] of the same compound?
The inhibition was greater than 50%.

What about the IC50 [15] of the same compound?
The IC50 was 6.55 µM.

With O=C(O[C@@H]1O[C@@H]2COC(=O)c3cc(O)c(O)c(O)c3-c3c(cc(O)c(O)c3O)C(=O)O[C@H]2[C@H](O)[C@H]1O)c1cc(O)c(O)c(O)c1 [STRICTININ] as the compound, how does the IC50 [16] read?
The IC50 was 1.5 µM.

Which IC50 [6] does the source give for COc1ccc([C@@H](O)c2cc(-c3ncnc4cc(N5CCOCC5)ccc34)c(F)cc2Cl)nn1 [NEDISERTIB] here?
The IC50 was no more than 0.003 µM.

What does the source list for O=C(O)C1=CC(=C(c2ccc(O)c(C(=O)O)c2)c2ccc(O)c(C(=O)O)c2)C=CC1=O [AURINTRICARBOXYLIC ACID]?
inhibition [1]: > 60%; IC50 [2]: < 5 µM

For Nc1nn2cc(F)cnc2c1C(=O)Nc1cncc(F)c1N1CCC(C(=O)N2CCN(C3COC3)CC2)CC1 [M4344], which Ki [10] is on record?
Its Ki is no more than 0.00015 µM.
